Source: ChEMBL document CHEMBL5723587, “Data for DCP probe BI-113823” (2024)

What was measured:
[1] = biological target: Sodium-dependent dopamine transporter (Homo sapiens) (UniProt Q01959); experiment: Inhibitor of DATRANS/H in the Eurofins SafetyScreen44 (BI) by Radioactive Assay; settings: Compound concentration 10.0 uM
[2] = biological target: Histamine H2 receptor (Homo sapiens) (UniProt P25021); experiment: Activity against H2/H in the Eurofins SafetyScreen44 (BI) by Radioactive Assay; settings: Compound concentration 10.0 uM
[3] = biological target: Substance-P receptor (Homo sapiens) (UniProt P25103); experiment: Activity against NK1/HU in the Eurofins SafetyScreen44 (BI) by Radioactive Assay; settings: Compound concentration 10.0 uM
[4] = biological target: Cysteinyl leukotriene receptor 1 (Homo sapiens) (UniProt Q9Y271); experiment: Activity against CYSLT1_HS in the Eurofins SafetyScreen44 (BI) by Radioactive Assay; settings: Compound concentration 10.0 uM
[5] = biological target: Platelet-activating factor receptor (Homo sapiens) (UniProt P25105); experiment: Activity against PAF/H in the Eurofins SafetyScreen44 (BI) by Radioactive Assay; settings: Compound concentration 10.0 uM
[6] = biological target: Neuropeptide Y receptor type 1 (Homo sapiens) (UniProt P25929); experiment: Activity against Y1/HU in the Eurofins SafetyScreen44 (BI) by Radioactive Assay; settings: Compound concentration 10.0 uM
[7] = biological target: Protein kinase C alpha type (Mus musculus) (UniProt P20444); experiment: Inhibitor of PHORBOLE/M in the Eurofins SafetyScreen44 (BI) by Radioactive Assay; settings: Compound concentration 10.0 uM
[8] = biological target: Sodium- and chloride-dependent GABA transporter 1 (Rattus norvegicus) (UniProt P23978); experiment: Activity against GABATRANS/RA in the Eurofins SafetyScreen44 (BI) by Radioactive Assay; settings: Compound concentration 10.0 uM
[9] = biological target: Acetylcholine receptor subunit alpha (Homo sapiens) (UniProt P02708); experiment: Activity against NACH/H in the Eurofins SafetyScreen44 (BI) by Radioligand Binding; settings: Compound concentration 10.0 uM
Chain of Acetylcholine receptor subunit alpha (Homo sapiens) (P02708 whole entry): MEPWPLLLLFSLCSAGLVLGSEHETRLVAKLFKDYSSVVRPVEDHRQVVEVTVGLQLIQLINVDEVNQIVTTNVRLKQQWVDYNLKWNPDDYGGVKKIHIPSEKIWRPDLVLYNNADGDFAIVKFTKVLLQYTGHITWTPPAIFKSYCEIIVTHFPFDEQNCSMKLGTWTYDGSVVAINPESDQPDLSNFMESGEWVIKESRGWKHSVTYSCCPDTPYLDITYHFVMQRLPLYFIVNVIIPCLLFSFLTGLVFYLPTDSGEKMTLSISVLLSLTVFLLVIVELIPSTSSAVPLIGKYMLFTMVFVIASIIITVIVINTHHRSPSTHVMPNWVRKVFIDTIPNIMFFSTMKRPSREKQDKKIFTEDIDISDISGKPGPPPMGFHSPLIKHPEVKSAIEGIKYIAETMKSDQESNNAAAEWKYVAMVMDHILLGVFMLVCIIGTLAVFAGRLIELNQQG

[10] = biological target: Endothelin receptor type B (Homo sapiens) (UniProt P24530); experiment: Activity against ETB/HUM in the Eurofins SafetyScreen44 (BI) by Radioactive Assay; settings: Compound concentration 10.0 uM
[11] = biological target: Beta-2 adrenergic receptor (Homo sapiens) (UniProt P07550); experiment: Activity against BETA2/HU in the Eurofins SafetyScreen44 (BI) by Radioactive Assay; settings: Compound concentration 10.0 uM
Chain of Beta-2 adrenergic receptor (Homo sapiens) (P07550 whole entry, looked up): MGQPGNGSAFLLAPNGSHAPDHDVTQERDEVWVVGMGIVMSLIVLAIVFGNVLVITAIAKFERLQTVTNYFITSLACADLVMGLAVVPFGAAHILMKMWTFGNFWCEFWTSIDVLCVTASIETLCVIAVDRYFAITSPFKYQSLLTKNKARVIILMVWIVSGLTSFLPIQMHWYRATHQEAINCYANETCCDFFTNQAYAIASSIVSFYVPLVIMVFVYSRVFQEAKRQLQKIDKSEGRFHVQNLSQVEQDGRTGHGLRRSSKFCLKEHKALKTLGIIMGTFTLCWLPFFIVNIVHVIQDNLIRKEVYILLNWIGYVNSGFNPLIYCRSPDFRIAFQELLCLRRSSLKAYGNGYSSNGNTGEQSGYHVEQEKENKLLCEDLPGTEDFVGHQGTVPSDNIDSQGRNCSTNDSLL

[12] = biological target: B1 bradykinin receptor (Homo sapiens) (UniProt P46663); experiment: Activity against B1/H in the Eurofins SafetyScreen44 (BI) by Radioactive Assay; settings: Compound concentration 10.0 uM
[13] = biological target: Sigma non-opioid intracellular receptor 1 (Homo sapiens) (UniProt Q99720); experiment: Activity against SIGMA1/HU in the Eurofins SafetyScreen44 (BI) by Radioactive Assay; settings: Compound concentration 10.0 uM
Chain of Sigma non-opioid intracellular receptor 1 (Homo sapiens) (Q99720 whole entry): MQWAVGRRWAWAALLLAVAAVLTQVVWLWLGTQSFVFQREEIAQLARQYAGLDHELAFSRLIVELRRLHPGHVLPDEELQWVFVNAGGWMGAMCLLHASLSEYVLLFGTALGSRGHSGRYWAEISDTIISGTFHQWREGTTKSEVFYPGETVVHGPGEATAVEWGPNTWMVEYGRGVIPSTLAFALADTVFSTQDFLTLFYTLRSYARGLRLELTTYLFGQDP

[14] = biological target: D(1A) dopamine receptor (Homo sapiens) (UniProt P21728); experiment: Activity against D1/HU in the Eurofins SafetyScreen44 (BI) by Radioactive Assay; settings: Compound concentration 10.0 uM
Chain of D(1A) dopamine receptor (Homo sapiens) (P21728 whole entry): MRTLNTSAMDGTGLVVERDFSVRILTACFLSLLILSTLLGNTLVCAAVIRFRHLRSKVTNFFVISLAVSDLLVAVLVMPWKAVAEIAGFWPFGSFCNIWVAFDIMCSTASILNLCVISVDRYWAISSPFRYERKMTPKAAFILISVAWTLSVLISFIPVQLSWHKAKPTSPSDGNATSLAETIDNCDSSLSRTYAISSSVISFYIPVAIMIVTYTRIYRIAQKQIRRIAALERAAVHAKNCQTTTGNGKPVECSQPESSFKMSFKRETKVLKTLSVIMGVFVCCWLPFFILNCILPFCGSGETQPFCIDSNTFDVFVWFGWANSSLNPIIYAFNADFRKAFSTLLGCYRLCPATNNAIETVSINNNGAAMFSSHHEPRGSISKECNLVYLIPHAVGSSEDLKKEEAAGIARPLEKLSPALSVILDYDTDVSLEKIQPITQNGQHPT

[15] = biological target: D(3) dopamine receptor (Homo sapiens) (UniProt P35462); experiment: Activity against D3/HU in the Eurofins SafetyScreen44 (BI) by Radioactive Assay; settings: Compound concentration 10.0 uM
Chain of D(3) dopamine receptor (Homo sapiens) (P35462 whole entry): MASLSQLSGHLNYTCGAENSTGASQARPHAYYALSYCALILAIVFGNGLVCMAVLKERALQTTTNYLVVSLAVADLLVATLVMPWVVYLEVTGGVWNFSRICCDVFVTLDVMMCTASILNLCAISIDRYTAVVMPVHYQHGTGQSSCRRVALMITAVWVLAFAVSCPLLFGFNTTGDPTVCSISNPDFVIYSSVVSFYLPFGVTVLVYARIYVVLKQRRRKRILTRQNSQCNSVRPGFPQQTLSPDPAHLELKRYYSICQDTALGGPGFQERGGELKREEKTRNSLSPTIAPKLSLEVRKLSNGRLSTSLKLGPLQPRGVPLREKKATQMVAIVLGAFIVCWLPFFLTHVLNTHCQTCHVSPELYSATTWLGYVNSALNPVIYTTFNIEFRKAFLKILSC

[16] = biological target: Histamine H3 receptor (Homo sapiens) (UniProt Q9Y5N1); experiment: Activity against H3/H in the Eurofins SafetyScreen44 (BI) by Radioactive Assay; settings: Compound concentration 10.0 uM
Chain of Histamine H3 receptor (Homo sapiens) (Q9Y5N1 whole entry): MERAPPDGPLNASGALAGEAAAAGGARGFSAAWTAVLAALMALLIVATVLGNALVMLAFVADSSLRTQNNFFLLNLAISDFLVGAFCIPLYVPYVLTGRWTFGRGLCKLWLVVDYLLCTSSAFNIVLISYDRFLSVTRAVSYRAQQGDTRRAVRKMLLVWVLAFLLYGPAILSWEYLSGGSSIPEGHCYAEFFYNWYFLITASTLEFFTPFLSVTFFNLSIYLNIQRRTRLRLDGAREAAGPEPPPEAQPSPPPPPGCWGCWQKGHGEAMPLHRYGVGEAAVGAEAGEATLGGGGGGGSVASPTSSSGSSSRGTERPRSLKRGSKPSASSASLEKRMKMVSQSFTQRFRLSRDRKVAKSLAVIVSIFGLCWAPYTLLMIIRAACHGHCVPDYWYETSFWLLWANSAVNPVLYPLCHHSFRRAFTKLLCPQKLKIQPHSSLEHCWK

[17] = biological target: Kappa-type opioid receptor (Homo sapiens) (UniProt P41145); experiment: Activity against KAPPA/HU in the Eurofins SafetyScreen44 (BI) by Radioactive Assay; settings: Compound concentration 10.0 uM
[18] = biological target: Neuropeptide Y receptor type 2 (Homo sapiens) (UniProt P49146); experiment: Activity against Y2/HU in the Eurofins SafetyScreen44 (BI) by Radioactive Assay; settings: Compound concentration 10.0 uM
[19] = biological target: 5-hydroxytryptamine receptor 1A (Homo sapiens) (UniProt P08908); experiment: Activity against 5HT1A/HU in the Eurofins SafetyScreen44 (BI) by Radioactive Assay; settings: Compound concentration 10.0 uM
Chain of 5-hydroxytryptamine receptor 1A (Homo sapiens) (P08908 whole entry): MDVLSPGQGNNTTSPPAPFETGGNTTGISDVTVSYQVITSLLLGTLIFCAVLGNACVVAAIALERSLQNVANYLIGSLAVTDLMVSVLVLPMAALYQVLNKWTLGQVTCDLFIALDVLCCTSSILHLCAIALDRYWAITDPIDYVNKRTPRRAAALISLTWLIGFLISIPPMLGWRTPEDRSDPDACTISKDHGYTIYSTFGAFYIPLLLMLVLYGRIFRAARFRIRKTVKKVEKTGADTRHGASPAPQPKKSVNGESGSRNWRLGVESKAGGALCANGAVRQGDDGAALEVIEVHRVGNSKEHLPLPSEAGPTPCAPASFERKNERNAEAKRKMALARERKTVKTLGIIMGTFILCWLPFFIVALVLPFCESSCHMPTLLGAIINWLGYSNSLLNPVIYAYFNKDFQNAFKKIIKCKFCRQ

[20] = biological target: Glucocorticoid receptor (Homo sapiens) (UniProt P04150); experiment: Activity against GLUCOCORTICO in the Eurofins SafetyScreen44 (BI) by Radioactive Assay; settings: Compound concentration 10.0 uM
Chain of Glucocorticoid receptor (Homo sapiens) (P04150 whole entry): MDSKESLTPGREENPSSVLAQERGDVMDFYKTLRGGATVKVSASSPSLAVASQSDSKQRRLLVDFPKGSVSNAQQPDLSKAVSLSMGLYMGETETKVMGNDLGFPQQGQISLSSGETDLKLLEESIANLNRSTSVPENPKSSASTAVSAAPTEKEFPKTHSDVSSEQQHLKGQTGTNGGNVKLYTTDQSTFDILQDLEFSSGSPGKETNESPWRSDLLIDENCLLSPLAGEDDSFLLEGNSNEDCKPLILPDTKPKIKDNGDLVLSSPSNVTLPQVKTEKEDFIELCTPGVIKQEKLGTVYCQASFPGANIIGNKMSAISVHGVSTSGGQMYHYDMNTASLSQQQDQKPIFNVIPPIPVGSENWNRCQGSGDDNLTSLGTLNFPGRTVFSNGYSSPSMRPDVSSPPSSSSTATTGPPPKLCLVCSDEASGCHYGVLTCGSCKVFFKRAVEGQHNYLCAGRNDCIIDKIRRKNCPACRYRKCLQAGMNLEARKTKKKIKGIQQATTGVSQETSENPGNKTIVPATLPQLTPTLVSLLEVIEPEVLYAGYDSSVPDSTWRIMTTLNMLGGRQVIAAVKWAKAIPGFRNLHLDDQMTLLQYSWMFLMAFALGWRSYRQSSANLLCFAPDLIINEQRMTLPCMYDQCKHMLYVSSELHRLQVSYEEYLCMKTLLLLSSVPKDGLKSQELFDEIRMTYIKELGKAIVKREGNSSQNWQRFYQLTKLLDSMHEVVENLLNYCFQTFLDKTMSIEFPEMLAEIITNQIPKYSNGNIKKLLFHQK

[21] = biological target: Muscarinic acetylcholine receptor M1 (Homo sapiens) (UniProt P11229); experiment: Activity against M1/HU in the Eurofins SafetyScreen44 (BI) by Radioactive Assay; settings: Compound concentration 10.0 uM
Chain of Muscarinic acetylcholine receptor M1 (Homo sapiens) (P11229 whole entry): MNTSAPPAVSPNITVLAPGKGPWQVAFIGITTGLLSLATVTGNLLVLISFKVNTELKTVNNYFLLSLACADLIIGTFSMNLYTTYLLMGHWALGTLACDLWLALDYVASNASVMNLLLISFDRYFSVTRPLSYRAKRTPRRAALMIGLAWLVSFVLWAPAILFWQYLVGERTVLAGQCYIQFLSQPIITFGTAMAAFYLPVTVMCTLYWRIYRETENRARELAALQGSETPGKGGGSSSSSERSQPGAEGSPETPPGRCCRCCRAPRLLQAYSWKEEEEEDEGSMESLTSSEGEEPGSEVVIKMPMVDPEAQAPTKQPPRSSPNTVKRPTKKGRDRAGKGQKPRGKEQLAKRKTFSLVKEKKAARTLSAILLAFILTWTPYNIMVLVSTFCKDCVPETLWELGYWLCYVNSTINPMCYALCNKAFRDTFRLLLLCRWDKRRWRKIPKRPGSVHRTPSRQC

[22] = biological target: Epidermal growth factor receptor (Homo sapiens) (UniProt P00533); experiment: Activity against EGF/HU in the Eurofins SafetyScreen44 (BI) by Radioactive Assay; settings: Compound concentration 10.0 uM
[23] = biological target: Glutamate NMDA receptor (Rattus norvegicus) (UniProt P35439+Q00959+Q00960+Q00961+Q62645+Q8VHN2+Q9R1M7); experiment: Agonist activity in the Eurofins SafetyScreen44 (BI) against NMDAAGSI/RA by Radioactive Assay; type: protein-complex assay; settings: Compound concentration 10.0 uM
[24] = biological target: 3',5'-cyclic-AMP phosphodiesterase 4A (Rattus norvegicus) (UniProt P54748); experiment: Activity against ROLIPRAM/R in the Eurofins SafetyScreen44 (BI) by Radioligand Binding; settings: Compound concentration 10.0 uM
[25] = biological target: Gamma-aminobutyric acid receptor subunit alpha-1 (Rattus norvegicus) (UniProt P62813); experiment: Activity against GABAACENTR in the Eurofins SafetyScreen44 (BI) by Radioactive Assay; settings: Compound concentration 10.0 uM
Chain of Gamma-aminobutyric acid receptor subunit alpha-1 (Rattus norvegicus) (P62813 whole entry): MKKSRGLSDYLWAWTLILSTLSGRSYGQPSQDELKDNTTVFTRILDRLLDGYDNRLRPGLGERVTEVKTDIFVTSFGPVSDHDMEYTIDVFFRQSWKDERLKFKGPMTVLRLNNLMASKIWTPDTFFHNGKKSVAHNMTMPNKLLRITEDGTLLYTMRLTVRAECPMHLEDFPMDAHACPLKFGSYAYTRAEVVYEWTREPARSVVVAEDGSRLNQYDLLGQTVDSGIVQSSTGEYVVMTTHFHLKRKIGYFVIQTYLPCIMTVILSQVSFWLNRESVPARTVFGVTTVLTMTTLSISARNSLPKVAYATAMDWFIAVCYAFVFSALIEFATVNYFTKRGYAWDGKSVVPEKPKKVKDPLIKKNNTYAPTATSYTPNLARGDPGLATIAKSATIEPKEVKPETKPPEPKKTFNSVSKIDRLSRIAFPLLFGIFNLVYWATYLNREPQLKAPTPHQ

[26] = Activity against I2/CENTR/R in the Eurofins SafetyScreen44 (BI) by Radioactive Assay; settings: Rattus norvegicus; Compound concentration 10.0 uM
[27] = biological target: P2X purinoceptor (Oryctolagus cuniculus) (UniProt G1U3D6); experiment: Activity against P2X/RB in the Eurofins SafetyScreen44 (BI) by Radioactive Assay; settings: Compound concentration 10.0 uM
hERG (KCNH2) = hERG (KCNH2) (Homo sapiens, UniProt Q12809); experiment: Activity against K+/HERG in the Eurofins SafetyScreen44 (BI) by Radioactive Assay; settings: compound concentration 10 uM, read-out: % Ctrl
[28] = biological target: Nicotinic acetylcholine receptor alpha-1/beta-1 (Homo sapiens) (UniProt P02708+P11230); experiment: Activity against NACH_BS_N/H in the Eurofins SafetyScreen44 (BI) by Radioactive Assay; type: protein-complex assay; settings: Compound concentration 10.0 uM
[29] = biological target: Voltage-dependent N-type calcium channel subunit alpha-1B (Rattus norvegicus) (UniProt Q02294); experiment: Activity against CA+/N/RA in the Eurofins SafetyScreen44 (BI) by Radioactive Assay; settings: Compound concentration 10.0 uM
[30] = biological target: Androgen receptor (Rattus norvegicus) (UniProt P15207); experiment: Activity against TESTOST/RA in the Eurofins SafetyScreen44 (BI) by Others; settings: Compound concentration 10.0 uM
[31] = biological target: Glutamate receptor ionotropic, NMDA 1 (Rattus norvegicus) (UniProt P35439); experiment: Inhibitor of NMDAGLSI/RA in the Eurofins SafetyScreen44 (BI) by Scintillation counting; settings: Compound concentration 10.0 uM
[32] = biological target: Sigma intracellular receptor 2 (Rattus norvegicus) (UniProt Q5U3Y7); experiment: Activity against SIGMA2/R in the Eurofins SafetyScreen44 (BI) by Radioactive Assay; settings: Compound concentration 10.0 uM
[33] = biological target: Prostaglandin E2 receptor EP4 subtype (Homo sapiens) (UniProt P35408); experiment: Activity against EP4/H in the Eurofins SafetyScreen44 (BI) by Radioactive Assay; settings: Compound concentration 10.0 uM
B2 bradykinin receptor = B2 bradykinin receptor (Homo sapiens, UniProt P30411); experiment: Radioligand binding assay (displacement of kallidin, human BDKRB2 ) at 10 µM ( Non-specific binding is estimated in the presence of 10 µM Des-Arg9- (Leu8)-Bradykinin. Membranes are filtered and washed, the filters are then counted to determine [3H]Kallidin[des-Arg10, Leu9] specifically bound.); design: compound concentration 10 uM
Chain of B2 bradykinin receptor (P30411 whole entry): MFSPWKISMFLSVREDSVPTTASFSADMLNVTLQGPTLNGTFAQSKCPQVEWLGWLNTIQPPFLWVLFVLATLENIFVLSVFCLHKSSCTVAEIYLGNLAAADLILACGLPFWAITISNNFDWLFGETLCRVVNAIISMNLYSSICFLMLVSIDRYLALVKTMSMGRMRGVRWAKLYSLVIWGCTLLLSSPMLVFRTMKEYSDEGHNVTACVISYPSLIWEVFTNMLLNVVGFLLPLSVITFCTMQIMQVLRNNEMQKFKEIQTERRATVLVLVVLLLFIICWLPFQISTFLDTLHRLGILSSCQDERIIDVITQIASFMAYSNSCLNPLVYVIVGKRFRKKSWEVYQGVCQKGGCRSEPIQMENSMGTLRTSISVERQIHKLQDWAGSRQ

COc1cc(C)c(S(=O)(=O)N(C)CCOCC(=O)N(C)[C@H]2CCC[C@@H](N3CCN(C)CC3)C2)c(C)c1
70% (not active): activity at 10 µM (hERG (KCNH2))
inactive: residual activity [1] 103% | residual activity [2] 93% | residual activity [3] 109% | residual activity [4] 95% | residual activity [5] 87% | residual activity [6] 109% | residual activity [7] 102% | residual activity [8] 119% | residual activity [9] 100% | residual activity [10] 104% | residual activity [11] 103% | residual activity [14] 97% | residual activity [15] 86% | residual activity [16] 77% | residual activity [17] 99% | residual activity [18] 111% | residual activity [19] 99% | residual activity [20] 103% | residual activity [21] 88% | residual activity [22] 125% | residual activity [23] 92% | residual activity [24] 84% | residual activity [25] 96% | residual activity [26] 60% | residual activity [27] 100% | residual activity [28] 96% | residual activity [29] 100% | residual activity [30] 96% | residual activity [31] 93% | residual activity [33] 93%
> 10 µM (not active): Ki (B2 bradykinin receptor)
active: residual activity [12] 22% | residual activity [13] 30% | residual activity [32] 45%
